Among the data in paper PMC7933318, “Engineering a lipoxygenase from cyclocybe aegerita towards long chain polyunsaturated fatty acids” (AMB Express, 2021) are specific activity values, retold here.

Molecules are shown by their SMILES.

This assay concerns the target T1, CaeLox1 (Cyclocybe aegerita, UniProt A0A8A1QR86).
T1 construct: gene LOX1; codon-optimized cDNA in pET28a, E. coli BL21-Gold (DE3), Ni-NTA purified
T1 sequence (A0A8A1QR86 1-656): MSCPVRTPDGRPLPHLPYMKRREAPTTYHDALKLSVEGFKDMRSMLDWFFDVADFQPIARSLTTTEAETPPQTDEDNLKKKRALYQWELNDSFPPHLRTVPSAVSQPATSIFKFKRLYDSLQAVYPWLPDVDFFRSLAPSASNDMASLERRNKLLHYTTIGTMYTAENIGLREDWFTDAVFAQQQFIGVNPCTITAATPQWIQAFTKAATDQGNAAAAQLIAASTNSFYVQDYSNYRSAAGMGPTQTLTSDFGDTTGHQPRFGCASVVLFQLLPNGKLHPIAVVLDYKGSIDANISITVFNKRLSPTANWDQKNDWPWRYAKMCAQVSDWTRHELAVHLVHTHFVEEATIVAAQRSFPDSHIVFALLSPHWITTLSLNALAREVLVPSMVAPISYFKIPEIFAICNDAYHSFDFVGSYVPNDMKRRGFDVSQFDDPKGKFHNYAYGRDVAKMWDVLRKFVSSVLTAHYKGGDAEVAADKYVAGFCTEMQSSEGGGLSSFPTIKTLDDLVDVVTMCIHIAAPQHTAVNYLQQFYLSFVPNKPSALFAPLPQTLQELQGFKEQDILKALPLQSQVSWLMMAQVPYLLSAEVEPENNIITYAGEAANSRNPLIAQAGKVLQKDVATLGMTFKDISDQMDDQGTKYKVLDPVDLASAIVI
Put plainly: conjugated diene formation at […] nm, specific activity. The class given is biochemical. Particulars: 1.25 mM PUFA, 50 mM phosphate pH 7.5, 25 °C.

As to `CCCCC/C=C\C/C=C\CCCCCCCC(=O)O` [LA, linoleic acid], the specific activity result is given as “we investigated the specific activities of PUFAs occurring (linoleic acid, linolenic acid)”.
